From patent US11648254B2 (Kumquat Biosciences Inc., priority 2021, dated 2023)
Read-outs that look alike come from different tables or passages of the source.

Legend:
[1] = test system: ERK phosphorylation (p-ERK 1/2 Thr202/Tyr204) in MIA PaCa-2 or NCI-H1975 cells; assay: ERK phosphorylation assay (AlphaLISA p-ERK 1/2); assay type: cell-based; conditions: MIA PaCa-2 cells or EGFR mutant NCI-H1975 cells; read-out: IC50 for the inhibition of ERK phosphorylation
Method: MIA PaCa-2 cells (ATCC CRL-1420) expressing K-Ras G12C is grown in DMEM/Ham's F12 medium supplemented with 10% fetal calf serum, glutamine and ˜2.5% horse serum. Alternatively, other cell lines with aberrant Ras signaling output can be utilized. Non-limiting exemplary cell lines include NCI-H358 and H1975. Cells are plated in 96-well plates at a concentration of 40,000 cells/well and allowed to attach for at least 8 hours. Following, diluted solutions of test inhibitor compounds are added to the cell culture. After ˜2 hours of incubation, the medium is removed and lysis buffer from AlphaLISA® SureFire® Ultra™ p-ERK 1/2 (Thr202/Tyr204) assay kit (Perkin Elmer ALSU-PERK-A10K) is added to the cells. The plate is agitated for 10 min at room temperature and 10 μL of the lysate is transferred to a 384-well Optiplate™ (Perkin Elmer) for assay. Thereafter ˜5 μL of Acceptor Mix from the p-ERK AlphaLISA assay kit is added to wells and plate is sealed with adhesive film. The samples are incubated for one hour at room temperature. Following, 5 μL of Donor Mix is added to the wells and plate is re-sealed with adhesive film, and incubated for one hour at room temperature. The plate is then read on a multimode microplate reader (e.g., SPARK©Tecan) equipped with Alpha detection module. The data can be fitted to four-parameter dose-response curve using Prism version 9 (GraphPad) to calculate an IC50 for the inhibition of ERK phosphorylation. […] 355, 332, 366, 216, 264, 356, 266, in an ERK phosphorylation assay utilizing either MIA PaCa-2 cells (ATCC CRL-1420) or EGFR mutant cell line (NCI-H1975 (ATCC CRL-5908)).

[2] = test system: NCI-H1975 cells (EGFR T790M L858R); assay: EGFR-SOS cellular inhibition assay (CellTiter-Glo, 3D); assay type: cell-based; conditions: Homo sapiens
SOS1 = SOS1 (Homo sapiens (Human), UniProt Q07889); assay: Ras-SOS interaction assay (HTRF); assay type: biochemical
Sequence of SOS1 (Q07889 564-1049): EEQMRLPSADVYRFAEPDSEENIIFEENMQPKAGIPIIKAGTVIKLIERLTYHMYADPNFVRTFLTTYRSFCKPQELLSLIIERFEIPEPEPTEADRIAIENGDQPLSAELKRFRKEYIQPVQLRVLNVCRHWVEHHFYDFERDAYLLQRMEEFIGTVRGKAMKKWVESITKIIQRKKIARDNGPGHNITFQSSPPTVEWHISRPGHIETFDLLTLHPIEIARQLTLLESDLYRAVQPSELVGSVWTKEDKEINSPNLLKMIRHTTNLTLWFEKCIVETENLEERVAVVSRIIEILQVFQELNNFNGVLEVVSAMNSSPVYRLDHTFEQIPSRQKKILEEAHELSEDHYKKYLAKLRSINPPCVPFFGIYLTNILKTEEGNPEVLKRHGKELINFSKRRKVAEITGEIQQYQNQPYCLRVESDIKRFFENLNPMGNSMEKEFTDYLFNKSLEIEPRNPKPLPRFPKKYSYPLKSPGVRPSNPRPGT

[3] = test system: MIA PaCa-2 cells (K-Ras G12C); assay: Ras-SOS cellular growth inhibition assay (CellTiter-Glo, 3D); assay type: cell-based; conditions: Homo sapiens
Procedure, shortened: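 MIA PaCa-2 cells grown in ultra-low-attachment plates (3D) in DMEM/Ham's F12 with 10% FCS and 2.5% horse serum, treated the day after seeding with a 9-point 3-fold compound series for about 5 days. Viability by CellTiter-Glo luminescence; IC50 from four-parameter fit.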

[4] = Metabolic (microsomal) stability assay; assay type: in vitro ADME; conditions: mouse liver microsomes, T1/2; read-out: DMPK-invitro-metabolic Stability (Mouse T1/2)
Description: Example 12: Metabolic (Microsomal) Stability Assay

[5] = In vitro plasma protein binding (PPB); assay type: in vitro ADME; conditions: percentage of free/unbound compound
[6] = 120 h, NCI-H1975, 3D proliferation, about 5 days, read-out: Bio-Cell-Prolif-3D (H1975 IC50)
[7] = NCI-H1975, EGFR T790M L858R, read-out: IC50 in inhibiting growth of NCI-H1975 cell line
[8] = K-RasG13D utilized, read-out: IC50 inhibition of SOS
[9] = K-RasG13D, read-out: IC50 value against SOS1
[10] = MIA PaCa-2, 120 h, MIA PaCa-2, 3D proliferation, about 5 days, read-out: Bio-Cell-Prolif-3D (MiaPaca2 IC50)
[11] = MIA PaCa-2, MIA PaCa-2, read-out: IC50 in inhibiting MIA PaCa-2 cell growth

SMILES: COc1nc2nc(C)nc(N[C@H](C)c3cccc(C(F)(F)[C@H](C)O)c3)c2cc1C1(C#N)CC1 [Compound 216, 1-(4-(((R)-1-(3-((S)-1,1-difluoro-2-hydroxypropyl)phenyl)ethyl)amino)-7-methoxy-2-methylpyrido[2,3-d]pyrimidin-6-yl)cyclopropane-1-carbonitrile]
- IC50 [1]: < 1000 nM
- IC50 [2, 6]: ≤ 1000 nM
- IC50 [2, 7]: < 500 nM
- IC50 (SOS1; [8]): < 100 nM
- IC50 (SOS1; [9]): < 50 nM
- IC50 [3, 10]: ≤ 1000 nM
- IC50 [3, 11]: < 500 nM

SMILES: COc1nc2ncnc(N[C@H](C)c3cccc(C(F)(F)[C@@H](C)O)c3)c2cc1C1(C#N)CC1 [Compound 264, 1-(4-(((R)-1-(3-((R)-1,1-difluoro-2-hydroxypropyl)phenyl)ethyl)amino)-7-methoxypyrido[2,3-d]pyrimidin-6-yl)cyclopropane-1-carbonitrile]
- IC50 [1]: < 1000 nM
- IC50 [2, 6]: ≤ 1000 nM
- IC50 [2, 7]: < 500 nM
- half-life [4]: 55.1 min
- IC50 (SOS1; [8]): < 100 nM
- IC50 (SOS1; [9]): < 50 nM
- DMPK-invitro-PPB (Mouse Unbound) [%] [5]: 4.94%
- IC50 [3, 10]: ≤ 1000 nM
- IC50 [3, 11]: < 500 nM

SMILES: COc1nc2ncnc(N[C@H](C)c3cccc(C(F)(F)[C@H](C)O)c3)c2cc1C1(C#N)CC1 [Compound 266, 1-(4-(((R)-1-(3-((S)-1,1-difluoro-2-hydroxypropyl)phenyl)ethyl)amino)-7-methoxypyrido[2,3-d]pyrimidin-6-yl)cyclopropane-1-carbonitrile]
- IC50 [1]: < 1000 nM
- IC50 [2, 6]: ≤ 1000 nM
- IC50 [2, 7]: < 500 nM
- IC50 (SOS1; [8]): < 100 nM
- IC50 (SOS1; [9]): < 50 nM
- IC50 [3, 10]: ≤ 1000 nM
- IC50 [3, 11]: < 500 nM

SMILES: COc1nc2ncnc(N[C@H](C)c3cccc(C(F)(F)[C@@H](C)O)c3F)c2cc1C1(C#N)CC1 [Compound 329, 1-(4-(((R)-1-(3-((R)-1,1-difluoro-2-hydroxypropyl)-2-fluorophenyl)ethyl)amino)-7-methoxypyrido[2,3-d]pyrimidin-6-yl)cyclopropane-1-carbonitrile]
- IC50 [2, 6]: ≤ 1000 nM
- IC50 [2, 7]: < 500 nM
- half-life [4]: 120 min
- IC50 (SOS1; [8]): < 100 nM
- IC50 (SOS1; [9]): < 50 nM
- DMPK-invitro-PPB (Mouse Unbound) [%] [5]: 2.72%
- IC50 [3, 10]: ≤ 1000 nM
- IC50 [3, 11]: < 500 nM

SMILES: COc1nc2nc(C)nc(N[C@H](C)c3cccc(C(F)(F)[C@@H](C)O)c3F)c2cc1C1(C#N)CC1 [Compound 332, 1-(4-(((R)-1-(3-((R)-1,1-difluoro-2-hydroxypropyl)-2-fluorophenyl)ethyl)amino)-7-methoxy-2-methylpyrido[2,3-d]pyrimidin-6-yl)cyclopropane-1-carbonitrile]
- IC50 [1]: < 1000 nM
- IC50 [2, 6]: ≤ 1000 nM
- IC50 [2, 7]: < 500 nM
- half-life [4]: 30.1 min
- IC50 (SOS1; [8]): < 100 nM
- IC50 (SOS1; [9]): < 50 nM
- DMPK-invitro-PPB (Mouse Unbound) [%] [5]: 0.3%
- IC50 [3, 10]: ≤ 1000 nM
- IC50 [3, 11]: < 500 nM

SMILES: C[C@@H](Nc1ncnc2nc(Cl)c(C3(C#N)CC3)cc12)c1cccc(C(F)(F)F)c1F [Compound 354, (R)-1-(7-chloro-4-((1-(2-fluoro-3-(trifluoromethyl)phenyl)ethyl)amino)pyrido[2,3-d]pyrimidin-6-yl)cyclopropane-1-carbonitrile]
- IC50 [2, 6]: ≤ 1000 nM
- IC50 [2, 7]: < 500 nM
- half-life [4]: > 200 min
- IC50 (SOS1; [8]): < 100 nM
- DMPK-invitro-PPB (Mouse Unbound) [%] [5]: 0.52%
- IC50 [3, 10]: ≤ 1000 nM
- IC50 [3, 11]: < 500 nM

SMILES: COc1nc2ncnc(N[C@H](C)c3cccc(C(F)(F)C(C)(C)O)c3)c2cc1C1(C#N)CC1 [Compound 355, (R)-1-(4-((1-(3-(1,1-difluoro-2-hydroxy-2-methylpropyl)phenyl)ethyl)amino)-7-methoxypyrido[2,3-d]pyrimidin-6-yl)cyclopropane-1-carbonitrile]
- IC50 [1]: < 1000 nM
- IC50 [2, 6]: ≤ 1000 nM
- IC50 [2, 7]: < 500 nM
- half-life [4]: > 200 min
- IC50 (SOS1; [8]): < 100 nM
- IC50 (SOS1; [9]): < 50 nM
- DMPK-invitro-PPB (Mouse Unbound) [%] [5]: 0.89%
- IC50 [3, 10]: ≤ 1000 nM
- IC50 [3, 11]: < 500 nM

SMILES: COc1nc2ncnc(N[C@H](C)c3cccc(C(F)(F)C(C)(C)O)c3F)c2cc1C1(C#N)CC1 [Compound 356, (R)-1-(4-((1-(3-(1,1-difluoro-2-hydroxy-2-methylpropyl)-2-fluorophenyl)ethyl)amino)-7-methoxypyrido[2,3-d]pyrimidin-6-yl)cyclopropane-1-carbonitrile]
- IC50 [1]: < 1000 nM
- IC50 [2, 6]: ≤ 1000 nM
- IC50 [2, 7]: < 500 nM
- half-life [4]: > 200 min
- IC50 (SOS1; [8]): < 100 nM
- IC50 (SOS1; [9]): < 50 nM
- DMPK-invitro-PPB (Mouse Unbound) [%] [5]: 0.48%
- IC50 [3, 10]: ≤ 1000 nM
- IC50 [3, 11]: < 500 nM

SMILES: COc1nc2nc(C)nc(N[C@H](C)c3cccc(C(F)(F)[C@@H](C)O)c3)c2cc1C1(C#N)CC1 [Compound 366, 1-(4-(((R)-1-(3-((R)-1,1-difluoro-2-hydroxypropyl)phenyl)ethyl)amino)-7-methoxy-2-methylpyrido[2,3-d]pyrimidin-6-yl)cyclopropane-1-carbonitrile]
- IC50 [1]: < 1000 nM
- IC50 [2, 6]: ≤ 1000 nM
- IC50 [2, 7]: < 500 nM
- half-life [4]: 25.7 min
- IC50 (SOS1; [8]): < 100 nM
- IC50 (SOS1; [9]): < 50 nM
- DMPK-invitro-PPB (Mouse Unbound) [%] [5]: 1.32%
- IC50 [3, 10]: ≤ 1000 nM
- IC50 [3, 11]: < 500 nM
